Reference: publication PMC9959982 (International Journal of Molecular Sciences, 2023)
Where two headings read alike, the source gives them in different places.

Assays:
HIV-1 (NL4.3) [1] = details: printed in Figure 1, prototypes of previous work; cited from earlier work
EV-A71 BrCr strain [2] = details: Figure 1; read-out: EV71 EC50; cited from earlier work
rhabdosarcoma (RD) cells = assay: Adverse effect on uninfected RD cells (MTS/PMS); details: RD cells
EV-A71 VP1_S184T_P246S = format: cell-based, Enterovirus A71; details: VP1_S184T_P246S double mutant
EV-A71 VP1_P246S = format: cell-based, Enterovirus A71; details: VP1_P246S mutant
EV-A71 VP1_S184T = format: cell-based, Enterovirus A71; details: VP1_S184T mutant
MT-4 cells = assay: Cytotoxicity in MT-4 cells (MTS/PES); format: cell-based; details: 50% reduction in cell viability, 5 days
[3] = Adverse effect on uninfected RD cells (MTS/PMS); details: human, uninfected rhabdosarcoma (RD) cells
HIV-1 (NL4.3) [4] = assay: microbe, parasite or virus in culture; format: cell-based; details: for EC50: virus-induced cytopathic effect reduced by 50%
HIV-2 (ROD) = assay: Inhibition of HIV-induced cytopathic effect in MT-4 cells, HIV-2; format: cell-based
EV-A71 BrCr strain [5] = assay: Virus-induced cell death assay, EV-A71 BrCr lab strain in RD cells; format: cell-based, Enterovirus A71; details: for EC50: EV-A71 BrCr (wild type)
[6] = Cytotoxicity in MT-4 cells (MTS/PES); format: cell-based; details: human, 50% reduction in cell viability
in vitro = details: human
[7] = Human immunodeficiency virus 1, MT4, MT-4 cells
[8] = Human immunodeficiency virus 2, MT4, virus-induced cytopathic effect reduced by 50%
[9] = Enterovirus A, EVA71, RD, RD cells

Compound: O=C(CCC(CCC(=O)NC(Cc1c(-c2cc(C(=O)O)cc(C(=O)O)c2)[nH]c2ccccc12)C(=O)O)(CCC(=O)NC(Cc1c(-c2cc(C(=O)O)cc(C(=O)O)c2)[nH]c2ccccc12)C(=O)O)[N+](=O)[O-])NC(Cc1c(-c2cc(C(=O)O)cc(C(=O)O)c2)[nH]c2ccccc12)C(=O)O (stereo not shown) [AL-470]
- EC50 (HIV-1 (NL4.3) [1]): 0.27 ± 0.12 µM
- EC50 (EV-A71 BrCr strain [2]): 0.35 ± 0.03 µM

Compound: O=C(CCOCC(COCCC(=O)NC(Cc1c(CCCNC(=O)Nc2cc(C(=O)O)cc(C(=O)O)c2)[nH]c2ccccc12)C(=O)O)(COCCC(=O)NC(Cc1c(CCCNC(=O)Nc2cc(C(=O)O)cc(C(=O)O)c2)[nH]c2ccccc12)C(=O)O)COCCC(=O)NC(Cc1c(CCCNC(=O)Nc2cc(C(=O)O)cc(C(=O)O)c2)[nH]c2ccccc12)C(=O)O)NC(Cc1c(CCCNC(=O)Nc2cc(C(=O)O)cc(C(=O)O)c2)[nH]c2ccccc12)C(=O)O (stereo not shown) [Compound 23]
- CC50 (rhabdosarcoma (RD) cells): > 50 µM
- EC50 (EV-A71 VP1_S184T_P246S): 0.58 ± 0.2 µM
- EC50 (EV-A71 VP1_P246S): 0.22 ± 0.01 µM
- EC50 (EV-A71 VP1_S184T): 0.41 ± 0.03 µM
- CC50 (MT-4 cells): > 50 µM

Compound: O=C(CCOCC(COCCC(=O)NC(Cc1c(CCCCCNC(=O)Nc2cc(C(=O)O)cc(C(=O)O)c2)[nH]c2ccccc12)C(=O)O)(COCCC(=O)NC(Cc1c(CCCCCNC(=O)Nc2cc(C(=O)O)cc(C(=O)O)c2)[nH]c2ccccc12)C(=O)O)COCCC(=O)NC(Cc1c(CCCCCNC(=O)Nc2cc(C(=O)O)cc(C(=O)O)c2)[nH]c2ccccc12)C(=O)O)NC(Cc1c(CCCCCNC(=O)Nc2cc(C(=O)O)cc(C(=O)O)c2)[nH]c2ccccc12)C(=O)O (stereo not shown) [Compound 24]
- CC50 (rhabdosarcoma (RD) cells): > 100 µM
- CC50 (MT-4 cells): 30.9 ± 0.98 µM

Compound: O=C(CCOCC(COCCC(=O)NCCNC(=O)Nc1cc(C(=O)O)cc(C(=O)O)c1)(COCCC(=O)NCCNC(=O)Nc1cc(C(=O)O)cc(C(=O)O)c1)COCCC(=O)NCCNC(=O)Nc1cc(C(=O)O)cc(C(=O)O)c1)NCCNC(=O)Nc1cc(C(=O)O)cc(C(=O)O)c1 [Compound 40]
- CC50 (rhabdosarcoma (RD) cells): > 100 µM
- CC50 (MT-4 cells): > 50 µM

Compound: O=C(O)CCCCCCc1[nH]c2ccccc2c1C[C@H](NC(=O)CCOCC(COCCC(=O)N[C@@H](Cc1c(CCCCCCC(=O)O)[nH]c2ccccc12)C(=O)O)(COCCC(=O)N[C@H](Cc1c(CCCCCCC(=O)O)[nH]c2ccccc12)C(=O)O)COCCC(=O)N[C@H](Cc1c(CCCCCCC(=O)O)[nH]c2ccccc12)C(=O)O)C(=O)O [Compound 33]
- CC50 (rhabdosarcoma (RD) cells): > 100 µM
- CC50 (MT-4 cells): > 50 µM

Compound: O=C(O)CCCc1[nH]c2ccccc2c1C[C@H](NC(=O)CCOCC(COCCC(=O)N[C@@H](Cc1c(CCCC(=O)O)[nH]c2ccccc12)C(=O)O)(COCCC(=O)N[C@H](Cc1c(CCCC(=O)O)[nH]c2ccccc12)C(=O)O)COCCC(=O)N[C@H](Cc1c(CCCC(=O)O)[nH]c2ccccc12)C(=O)O)C(=O)O [Compound 32]
- CC50 (rhabdosarcoma (RD) cells): > 100 µM
- CC50 (MT-4 cells): > 50 µM

Compound: O=C(CCOCC(COCCC(=O)Nc1cc(C(=O)O)cc(C(=O)O)c1)(COCCC(=O)Nc1cc(C(=O)O)cc(C(=O)O)c1)COCCC(=O)Nc1cc(C(=O)O)cc(C(=O)O)c1)Nc1cc(C(=O)O)cc(C(=O)O)c1 [Compound 35]
- CC50 at 3 days [3]: > 100 µM
- EC50 (HIV-1 (NL4.3) [4]; [7]): > 50 µM
- activity against HIV-1 (HIV-1 (NL4.3) [4]; at concentrations up to 50 µM): inactive
- EC50 (HIV-2 (ROD); [8]): > 50 µM
- EC50 (EV-A71 BrCr strain [5]; RD cells): 8.48 ± 2.34 µM
- SI selectivity index (CC50/EC50) (EV-A71 BrCr strain [5]; EV-A71 BrCr, RD cells): >12
- EC50 (EV-A71 BrCr strain [5]; [9]): 8.5 µM
- CC50 at 5 days [6]: > 50 µM

Compound: dextran sulfate-5000 [DS-5000]
- EC50 (HIV-1 (NL4.3) [4]; MT-4 cells): 0.07 ± 0.02 µM
- EC50 (HIV-2 (ROD); virus-induced cytopathic effect reduced by 50%): 0.03 ± 0.01 µM

Compound: CN[C@@H]1[C@H](O[C@@H]2OC[C@@H](O)[C@H](O)[C@H]2O)[C@@H](O)[C@H](O[C@H]2c3cc(C)c(C(=O)N[C@H](C)C(=O)O)c(O)c3-c3c(cc4c(c3O)C(=O)c3cc(OC)cc(O)c3C4=O)[C@@H]2O)O[C@@H]1C [PRM-A, pradimicin A]
- EC50 (HIV-1 (NL4.3) [4]; [7]): 3.3 ± 1.2 µM
- SI selectivity index (CC50/EC50) (HIV-1 (NL4.3) [4]; MT-4 cells, Table 1): >30.3
- EC50 (HIV-2 (ROD); [8]): 5.9 ± 3.7 µM
- CC50 at 5 days [6]: > 100 µM

Compound: O=C(CCOCC(COCCC(=O)NC(Cc1c(CCCCCCCCNC(=O)Nc2cc(C(=O)O)cc(C(=O)O)c2)[nH]c2ccccc12)C(=O)O)(COCCC(=O)NC(Cc1c(CCCCCCCCNC(=O)Nc2cc(C(=O)O)cc(C(=O)O)c2)[nH]c2ccccc12)C(=O)O)COCCC(=O)NC(Cc1c(CCCCCCCCNC(=O)Nc2cc(C(=O)O)cc(C(=O)O)c2)[nH]c2ccccc12)C(=O)O)NC(Cc1c(CCCCCCCCNC(=O)Nc2cc(C(=O)O)cc(C(=O)O)c2)[nH]c2ccccc12)C(=O)O (stereo not shown) [Compound 25]
- CC50 (rhabdosarcoma (RD) cells): > 100 µM
- CC50 (MT-4 cells): > 50 µM

Compound: CCOC(=O)c1ccc(OCCC2CCN(c3ccc(C)nn3)CC2)cc1 [Pirodavir, pirodavir, reference compound]
- SI selectivity index (CC50/EC50) (EV-A71 BrCr strain [5]): >333
- EC50 (EV-A71 BrCr strain [5]; [9]): 0.3 ± 0.001 µM
- CC50 at 3 days (in vitro): > 100 µM
